Experimental findings from US10945516B2, “Device mounted on mask pack, mask pack and kit comprising the same” (BIOSENSOR LABORATORIES INC., priority 2016, dated 2021) are described below.

The format of data set [1] is in vitro ADME. The note with it: pig, 30 min, 0.5 mM. The method, then: In particular, first, frozen pig skin purchased from a slaughterhouse was left out at room temperature and thawed for 2 to 3 hours for preparation. Then, hair on the pig skin was removed, and the pig skin was stretched to have elasticity and fixed on a plate with pins. As an experimental group, the mask pack prepared according to an embodiment was applied to the pig skin for 30 minutes, and as a control group, a mask pack on which a RED battery was not mounted was applied to the pig skin for 30 minutes. 0.5 mM of Calcein (having a molecular weight of 622.55 g/mol, available from Sigma-Aldrich), which is a fluorescent agent, was used in a material-containing portion. Thereafter, the pig skin was prepared as samples and fixed for 24 hours by using a fixing solution of 4% paraformaldehyde (pH 7.4 at 4° C.). After the fixing, the samples were sufficiently washed with a PBS (pH 7.4) solution, and embedded with a Tissue-Tek O.C.T. compound (available from Sakura Finetek, USA) and rapidly cooled. The cooled samples were cut to a size of 7 um by using a cryomicrotome (Shandon Cryotome SME Cryostat, Shandon Scientific LTD, Cheshire, England). The cryomicrotomed tissue was washed with a PBS solution, mounted on a mounting solution, covered with a cover slip, and observed using a fluorescent microscope (Axio Observer Z1; Zeiss, Gottingen, Germany), and the results are shown in FIG. 11.

The nature of data set [2]: Degree of absorption of vitamin C by mouse skin from patch (HPLC). In kind it is in vitro ADME. The note with it: 12.5 mg per patch, 6 hours, hairless mouse back skin. As for the experimental part:
In particular, hairless mouse skin was used to measure a cumulative amount of vitamin C in skin of a mouse. As a control group, a preparation containing vitamin C in a general patch was used. As an experimental group, a preparation containing vitamin C in a patch using reverse electrodialysis was used. A cohesive hydrogel-type patch was prepared by using 3 w/v % Carbopol, and 0.5 mL of a vitamin C-containing cohesive hydrogel was loaded on the patch (an amount of vitamin C was 2.5 w/v %, and an amount of vitamin C loaded per patch was 12.5 mg). Back skin of a 5 week-old mouse (20 to 25 g) was taken, and the patch was mounted thereon. The patch was removed after being incubated for 6 hours, and the skin was carefully separated, quickly washed by using DDW and MeOH, and freeze-stored at −70° C. […] Amounts of vitamin C in the samples were measured by using high-performance liquid chromatography (HPLC) using a mixture of acetonitrile and 0.3 M of KH2PO4 (pH 4) at a ratio of 40:60 as a mobile phase, a Nucleosil NH2 (100 μm) column, a flow rate of 0.8 mL/min, an insertion volume of 20 μL, a UV wavelength of 264 nm, and a column temperature of 25° C., and the results are shown in FIG. 13.

Consider `O=C(O)CN(CC(=O)O)Cc1cc2c(cc1O)Oc1cc(O)c(CN(CC(=O)O)CC(=O)O)cc1C21OC(=O)c2ccccc21` [Calcein], for which, in data set [1], the “amount of fluorescence that permeated into skin” value amounted to 0.47 ng/cm^2; the “amount permeated into skin” value is recorded as “about 0.05 ng/cm^2”; the “increase of amount permeated into skin, reverse electrodialysis mask pack compared to passive diffusion” value is on record as “about 7 times”.

As for `O=C1O[C@H]([C@@H](O)CO)C(O)=C1O` [vitamin C], the “locally remaining amounts of vitamin C of the epidermis layer and the dermis layer” value in data set [2] (control group general patch) was “small”. Besides, in data set [2] (reverse electrodialysis patch vs general patch), the “increase of locally remaining amounts of vitamin C of the epidermis layer and the dermis layer relative to control group” value was “about 3 times”.
